Target: USP30 (Homo sapiens (Human), UniProt Q70CQ3)
Test: USP30 Biochemical IC50 Assay
Conditions: fluorescence polarisation, TAMRA labelled peptide linked to ubiquitin; enzyme and compound incubated 30 min; read after 2 h at room temperature; read-out: IC50 range
Protocol: USP30 Biochemical IC50 Assay
Dilution plates were prepared at 21 times the final concentration (2100 μM for a final concentration of 100 μM) in 50% DMSO in a 96-well polypropylene V-bottom plate (Greiner #651201). A typical 8-point dilution series would be 100, 30, 10, 3, 1, 0.3, 0.1, 0.03 μM final. Reactions were performed in duplicate in black 384 well plates (small volume, Greiner 784076) in a final reaction volume of 21 μl. Either 1 μl of 50% DMSO or diluted compound was added to the plate. USP30 was diluted in reaction buffer (40 mM Tris, pH 7.5, 0.005% Tween 20, 0.5 mg/ml BSA, 5 mM beta-mercaptoethanol) to the equivalent of 0.05 μl/well and 10 μl of diluted USP30 was added to the compound. Enzyme and compound were incubated for 30 min at room temp. Reactions were initiated by the addition of 50 nM of TAMRA labelled peptide linked to ubiquitin via an iso-peptide bond as fluorescence polarisation substrate. Reactions were read immediately after addition of substrate and following a 2 h incubation at room temperature. Readings were performed on a Pherastar Plus (BMG Labtech). Excitation 540 nm; Emission 590 nm.

Chain of USP30 (Q70CQ3 57-517): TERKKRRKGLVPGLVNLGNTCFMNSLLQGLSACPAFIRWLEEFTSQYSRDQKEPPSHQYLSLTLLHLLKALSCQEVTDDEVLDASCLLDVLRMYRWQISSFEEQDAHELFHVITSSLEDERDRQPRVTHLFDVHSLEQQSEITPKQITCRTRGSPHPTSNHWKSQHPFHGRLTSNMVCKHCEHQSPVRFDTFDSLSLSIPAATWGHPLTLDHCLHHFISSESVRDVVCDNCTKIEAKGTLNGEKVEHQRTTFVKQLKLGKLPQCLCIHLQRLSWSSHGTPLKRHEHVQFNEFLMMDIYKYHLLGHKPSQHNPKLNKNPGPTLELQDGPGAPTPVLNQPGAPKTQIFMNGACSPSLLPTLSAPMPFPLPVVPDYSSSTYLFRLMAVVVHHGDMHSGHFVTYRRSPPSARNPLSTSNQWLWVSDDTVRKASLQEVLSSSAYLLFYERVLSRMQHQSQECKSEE

CN(c1ncc(-c2ccccc2)s1)C1CCN(C#N)C1 (centres unmarked) [Example 13, 3-(Methyl(5-phenylthiazol-2-yl)amino)pyrrolidine-1-carbonitrile] and CN(c1ccc(-c2ccccc2)cn1)C1CCN(C#N)C1 (centres unmarked) [Example 14, 3-(Methyl(5-phenylpyridin-2-yl)amino)pyrrolidine-1-carbonitrile] fall in the same range of IC50: 1000 to 10000 nM for the first, 1000 to 10000 nM for the second.

First: N#CN1C[C@H]2CCN(c3ncc(-c4ccccc4)s3)[C@H]2C1 (relative stereo) [Example 8, cis-1-(5-Phenylthiazol-2-yl)hexahydropyrrolo[3,4-b]pyrrole-5(1H)-carbonitrile]
Second: N#CN1CC2CCCN(c3ncc(-c4ccccc4)s3)C2C1 (centres unmarked) [Example 11, 1-(5-Phenylthiazol-2-yl)octahydro-6H-pyrrolo[3,4-b]pyridine-6-carbonitrile]
The IC50 of the first is lower: 100 to 1000 nM for the first, 1000 to 10000 nM for the second. The first is the more potent here.

First: CN(c1nc2ccc(C(F)(F)F)cc2[nH]1)[C@@H]1CCN(C#N)C1 [Example 18, (R)-3-(Methyl(6-(trifluoromethyl)-1H-benzo[d]imidazol-2-yl)amino)pyrrolidine-1-carbonitrile]
Second: N#CN1C[C@H]2CCN(c3nc4ccc(OC(F)(F)F)cc4[nH]3)[C@H]2C1 [Example 15, (3aR,6aR)-1-(6-(Trifluoromethoxy)-1H-benzo[d]imidazol-2-yl)hexahydropyrrolo[3,4-b]pyrrole-5(1H)-carbonitrile]
The IC50 of the first is higher: 100 to 1000 nM for the first, 10 to 100 nM for the second. The second is the more potent here.

First: N#CN1C[C@@H]2OCCN(c3nc4ccc(F)cc4s3)[C@@H]2C1 (relative stereo) [Example 3, cis-4-(6-Fluorobenzo[d]thiazol-2-yl)hexahydropyrrolo[3,4-b][1,4]oxazine-6(2H)-carbonitrile]
Second: N#CN1C[C@H]2OCCN(c3ncc(-c4ccccc4)s3)[C@H]2C1 (relative stereo) [Example 9, cis-4-(5-Phenylthiazol-2-yl)hexahydropyrrolo[3,4-b][1,4]oxazine-6(2H)-carbonitrile]
The IC50 of the first is higher: 1000 to 10000 nM for the first, 100 to 1000 nM for the second.

N#Cc1ccc2nc(N3CC[C@@H]4CN(C#N)C[C@@H]43)[nH]c2c1 [Example 16, 2-((3aR,6aR)-5-Cyanohexahydropyrrolo[3,4-b]pyrrol-1(2H)-yl)-1H-benzo[d]imidazole-6-carbonitrile] and COc1ccc2nc(N3CC[C@@H]4CN(C#N)C[C@@H]43)[nH]c2c1 [Example 17, (3aR,6aR)-1-(6-Methoxy-1H-benzo[d]imidazol-2-yl)hexahydropyrrolo[3,4-b]pyrrole-5(1H)-carbonitrile] fall in the same range of IC50: 100 to 1000 nM for the first, 100 to 1000 nM for the second.

N#Cc1cccc(-c2ccc(N3CCO[C@@H]4CN(C#N)C[C@@H]43)nc2)n1 (racemic) [Example 27] and N#Cc1cc(-c2ccc(N3CCO[C@H]4CN(C#N)C[C@H]43)nc2)ccn1 (single isomer, unassigned) [Example 20, cis-4-(2′-Cyano-[3,4′-bipyridin]-6-yl)hexahydropyrrolo[3,4-b][1,4]oxazine-6(2H)-carbonitrile] fall in the same range of IC50: 10 to 100 nM for the first, 10 to 100 nM for the second.

N#Cc1cccc(-c2cnc(N3CCO[C@@H]4CN(C#N)C[C@@H]43)cn2)c1 (racemic) [Example 25, rac-(4aR,7aS)-4-(5-(3-Cyanophenyl)pyrazin-2-yl)hexahydropyrrolo[3,4-b][1,4]oxazine-6(2H)-carbonitrile] and N#Cc1cccc(-c2cnc(N3CCO[C@@H]4CN(C#N)C[C@@H]43)nc2)c1 (racemic) [Example 24, rac-(4aR,7aS)-4-(5-(3-Cyanophenyl)pyrimidin-2-yl)hexahydropyrrolo[3,4-b][1,4]oxazine-6(2H)-carbonitrile] fall in the same range of IC50: 1 to 10 nM for the first, 1 to 10 nM for the second.

Compared with N#CN1C[C@@H]2OCCN(c3cc(-c4ccccc4)ccn3)[C@@H]2C1 (relative stereo) [Example 4, cis-4-(4-Phenylpyridin-2-yl)hexahydropyrrolo[3,4-b][1,4]oxazine-6(2H)-carbonitrile], N#CN1C[C@@H]2OCCN(c3ccc(-c4ccccc4)cn3)[C@@H]2C1 (relative stereo) [Example 5, cis-4-(5-Phenylpyridin-2-yl)hexahydropyrrolo[3,4-b][1,4]oxazine-6(2H)-carbonitrile] is lower in IC50: 1000 to 10000 nM for the first, 100 to 1000 nM for the second.

First: N#Cc1cc(-c2ccc(N3CCO[C@H]4CN(C#N)C[C@H]43)nn2)ccn1 (single isomer, unassigned) [Example 22, cis-4-(6-(2-Cyanopyridin-4-yl)pyridazin-3-yl)hexahydropyrrolo[3,4-b][1,4]oxazine-6(2H)-carbonitrile]
Second: N#Cc1cc(-c2ccc(N3CCO[C@H]4CN(C#N)C[C@H]43)nc2)ccn1 (single isomer, unassigned) [Example 19, cis-4-(2′-Cyano-[3,4′-bipyridin]-6-yl)hexahydropyrrolo[3,4-b][1,4]oxazine-6(2H)-carbonitrile]
The IC50 of the first is higher: 10 to 100 nM for the first, 1 to 10 nM for the second.

N#CN1C[C@@H]2OCCN(c3nccc(-c4ccccc4)n3)[C@@H]2C1 (relative stereo) [Example 7, cis-4-(4-Phenylpyrimidin-2-yl)hexahydropyrrolo[3,4-b][1,4]oxazine-6(2H)-carbonitrile] and N#CN1C[C@@H]2OCCN(c3cccc(-c4ccccc4)n3)[C@@H]2C1 (relative stereo) [Example 6, cis-4-(6-Phenylpyridin-2-yl)hexahydropyrrolo[3,4-b][1,4]oxazine-6(2H)-carbonitrile] fall in the same range of IC50: 100 to 1000 nM for the first, 100 to 1000 nM for the second.

Compared with N#CN1CC2CCN(c3ccccc3)C2C1 (centres unmarked) [Example 1, 1-Phenylhexahydropyrrolo[3,4-b]pyrrole-5(1H)-carbonitrile], N#CN1C[C@@H]2OCCN(c3ncc(-c4ccccc4)s3)[C@H]2C1 (relative stereo) [Example 10, trans-4-(5-Phenylthiazol-2-yl)hexahydropyrrolo[3,4-b][1,4]oxazine-6(2H)-carbonitrile] is lower in IC50: 1000 to 10000 nM for the first, 100 to 1000 nM for the second. The second is the more potent here.

N#Cc1cccc(-c2cccnc2N2CCO[C@H]3CN(C#N)C[C@H]32)c1 (racemic) [Example 23, rac-(4aR,7aS)-4-(5-(3-Cyanophenyl)pyridin-6-yl)hexahydropyrrolo[3,4-b][1,4]oxazine-6(2H)-carbonitrile] and N#Cc1ccnc(-c2ccc(N3CCO[C@@H]4CN(C#N)C[C@@H]43)nc2)c1 (racemic) [Example 26, rac-(4aR,7aS)-4-(4-Cyano-[2,3′-bipyridin]-6′-yl)hexahydropyrrolo[3,4-b][1,4]oxazine-6(2H)-carbonitrile] fall in the same range of IC50: 1 to 10 nM for the first, 1 to 10 nM for the second.

N#CN1C[C@H]2OCCN(c3ccc(-c4ccccc4)nn3)[C@H]2C1 (relative stereo) [Example 2, cis-4-(6-Phenylpyridazin-3-yl)hexahydropyrrolo[3,4-b][1,4]oxazine-6(2H)-carbonitrile] and N#Cc1cc(-c2ccc(N3CCO[C@H]4CN(C#N)C[C@H]43)nn2)ccn1 (single isomer, unassigned) [Example 21, cis-4-(6-(2-Cyanopyridin-4-yl)pyridazin-3-yl)hexahydropyrrolo[3,4-b][1,4]oxazine-6(2H)-carbonitrile] fall in the same range of IC50: 100 to 1000 nM for the first, 100 to 1000 nM for the second.

From patent US11084821B2 (MISSION THERAPEUTICS LIMITED, priority 2016, dated 2021)
